Legend:
Details in all cases: Compound concentration 10 µM
[1] = biological target: T1, Alpha-2A adrenergic receptor (Homo sapiens) (UniProt P08913)
T1 sequence (whole entry): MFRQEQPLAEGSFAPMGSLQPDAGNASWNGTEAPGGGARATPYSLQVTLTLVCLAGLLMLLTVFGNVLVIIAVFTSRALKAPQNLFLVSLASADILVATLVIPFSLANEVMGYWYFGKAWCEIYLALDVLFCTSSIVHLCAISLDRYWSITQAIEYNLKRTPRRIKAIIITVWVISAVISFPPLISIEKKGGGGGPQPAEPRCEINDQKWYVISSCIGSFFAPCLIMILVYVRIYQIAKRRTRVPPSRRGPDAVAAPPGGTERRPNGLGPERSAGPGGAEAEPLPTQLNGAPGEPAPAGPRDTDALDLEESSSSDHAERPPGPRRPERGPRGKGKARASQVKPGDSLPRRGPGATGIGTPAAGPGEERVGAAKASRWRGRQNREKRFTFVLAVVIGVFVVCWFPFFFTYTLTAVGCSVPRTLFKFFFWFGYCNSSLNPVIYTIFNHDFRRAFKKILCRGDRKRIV
Description: PDSP Primary Binding target: ADRA2A - Compounds are tested at 10 uM concentration, plate are incubated at room temperature in the dark for 90 minutes. Reaction are stopped by vacuum filtration onto 0.3% polyethyleneimine soaked filter mats using Filtermate harvester. Scintilation cocktail is then melted onto microwave-dried filters on a hot plate and the radio activity is counted in Microbia counter.

[2] = biological target: T2, Alpha-2C adrenergic receptor (Homo sapiens) (UniProt P18825)
T2 sequence (whole entry): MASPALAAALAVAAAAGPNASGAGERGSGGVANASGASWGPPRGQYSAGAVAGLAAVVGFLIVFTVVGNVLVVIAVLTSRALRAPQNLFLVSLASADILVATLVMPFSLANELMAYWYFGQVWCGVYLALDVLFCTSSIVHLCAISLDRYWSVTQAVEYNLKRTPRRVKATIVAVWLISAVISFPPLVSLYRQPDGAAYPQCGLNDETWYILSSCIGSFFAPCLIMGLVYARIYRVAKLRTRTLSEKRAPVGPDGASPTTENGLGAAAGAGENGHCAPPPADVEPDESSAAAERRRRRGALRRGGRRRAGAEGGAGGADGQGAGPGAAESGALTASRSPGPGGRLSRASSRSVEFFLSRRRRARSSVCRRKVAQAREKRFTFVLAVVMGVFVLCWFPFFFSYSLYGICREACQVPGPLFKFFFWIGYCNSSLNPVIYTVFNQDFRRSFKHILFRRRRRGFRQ
Description: PDSP Primary Binding target: ADRA2C - Compounds are tested at 10 uM concentration, plate are incubated at room temperature in the dark for 90 minutes. Reaction are stopped by vacuum filtration onto 0.3% polyethyleneimine soaked filter mats using Filtermate harvester. Scintilation cocktail is then melted onto microwave-dried filters on a hot plate and the radio activity is counted in Microbia counter.

[3] = biological target: Beta-2 adrenergic receptor (Homo sapiens) (UniProt P07550)
Beta-2 adrenergic receptor (Homo sapiens), sequence (P07550 whole entry, looked up): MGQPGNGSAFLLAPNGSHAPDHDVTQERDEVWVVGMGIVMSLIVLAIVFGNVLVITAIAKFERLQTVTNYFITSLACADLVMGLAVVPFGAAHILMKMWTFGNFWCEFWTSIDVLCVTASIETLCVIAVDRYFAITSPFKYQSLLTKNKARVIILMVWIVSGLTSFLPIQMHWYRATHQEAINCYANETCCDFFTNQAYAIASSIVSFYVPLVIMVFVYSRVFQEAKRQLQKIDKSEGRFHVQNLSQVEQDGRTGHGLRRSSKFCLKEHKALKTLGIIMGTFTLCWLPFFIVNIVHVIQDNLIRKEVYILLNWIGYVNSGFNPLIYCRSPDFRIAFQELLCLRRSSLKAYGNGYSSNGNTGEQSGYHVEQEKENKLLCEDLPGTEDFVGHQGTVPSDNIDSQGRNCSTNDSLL
Description: PDSP Primary Binding target: ADRB2 - Compounds are tested at 10 uM concentration, plate are incubated at room temperature in the dark for 90 minutes. Reaction are stopped by vacuum filtration onto 0.3% polyethyleneimine soaked filter mats using Filtermate harvester. Scintilation cocktail is then melted onto microwave-dried filters on a hot plate and the radio activity is counted in Microbia counter.

[4] = biological target: T3, Muscarinic acetylcholine receptor M1 (Homo sapiens) (UniProt P11229)
T3 sequence (whole entry): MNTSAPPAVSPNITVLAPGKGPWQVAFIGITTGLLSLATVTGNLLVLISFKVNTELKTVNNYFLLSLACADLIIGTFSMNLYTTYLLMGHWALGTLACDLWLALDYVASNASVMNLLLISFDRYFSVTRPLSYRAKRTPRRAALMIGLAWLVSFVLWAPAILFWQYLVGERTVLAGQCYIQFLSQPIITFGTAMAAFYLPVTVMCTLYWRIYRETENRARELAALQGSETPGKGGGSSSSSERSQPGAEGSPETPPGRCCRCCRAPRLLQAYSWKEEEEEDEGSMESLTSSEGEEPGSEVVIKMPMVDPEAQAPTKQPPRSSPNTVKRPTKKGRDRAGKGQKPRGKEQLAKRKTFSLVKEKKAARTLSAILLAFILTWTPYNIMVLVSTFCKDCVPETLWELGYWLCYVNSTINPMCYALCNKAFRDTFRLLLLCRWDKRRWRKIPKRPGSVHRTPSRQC
Description: PDSP Primary Binding target: CHRM1 - Compounds are tested at 10 uM concentration, plate are incubated at room temperature in the dark for 90 minutes. Reaction are stopped by vacuum filtration onto 0.3% polyethyleneimine soaked filter mats using Filtermate harvester. Scintilation cocktail is then melted onto microwave-dried filters on a hot plate and the radio activity is counted in Microbia counter.

[5] = biological target: T4, Muscarinic acetylcholine receptor M2 (Homo sapiens) (UniProt P08172)
T4 sequence (whole entry): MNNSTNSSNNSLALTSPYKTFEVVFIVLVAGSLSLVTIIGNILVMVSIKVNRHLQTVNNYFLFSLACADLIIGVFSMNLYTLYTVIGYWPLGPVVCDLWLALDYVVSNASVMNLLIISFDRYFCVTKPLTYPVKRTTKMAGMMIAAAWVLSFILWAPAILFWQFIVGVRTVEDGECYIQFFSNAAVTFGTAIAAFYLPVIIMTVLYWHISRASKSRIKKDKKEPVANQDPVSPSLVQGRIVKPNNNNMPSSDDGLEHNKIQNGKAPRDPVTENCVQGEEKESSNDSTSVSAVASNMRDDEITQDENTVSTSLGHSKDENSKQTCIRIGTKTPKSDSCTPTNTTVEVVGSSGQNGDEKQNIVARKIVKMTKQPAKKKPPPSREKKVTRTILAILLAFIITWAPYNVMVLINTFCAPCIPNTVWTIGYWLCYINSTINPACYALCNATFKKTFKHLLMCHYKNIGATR
Description: PDSP Primary Binding target: CHRM2 - Compounds are tested at 10 uM concentration, plate are incubated at room temperature in the dark for 90 minutes. Reaction are stopped by vacuum filtration onto 0.3% polyethyleneimine soaked filter mats using Filtermate harvester. Scintilation cocktail is then melted onto microwave-dried filters on a hot plate and the radio activity is counted in Microbia counter.

[6] = biological target: Muscarinic acetylcholine receptor M3 (Homo sapiens) (UniProt P20309)
Muscarinic acetylcholine receptor M3 (Homo sapiens), sequence (P20309 whole entry, looked up): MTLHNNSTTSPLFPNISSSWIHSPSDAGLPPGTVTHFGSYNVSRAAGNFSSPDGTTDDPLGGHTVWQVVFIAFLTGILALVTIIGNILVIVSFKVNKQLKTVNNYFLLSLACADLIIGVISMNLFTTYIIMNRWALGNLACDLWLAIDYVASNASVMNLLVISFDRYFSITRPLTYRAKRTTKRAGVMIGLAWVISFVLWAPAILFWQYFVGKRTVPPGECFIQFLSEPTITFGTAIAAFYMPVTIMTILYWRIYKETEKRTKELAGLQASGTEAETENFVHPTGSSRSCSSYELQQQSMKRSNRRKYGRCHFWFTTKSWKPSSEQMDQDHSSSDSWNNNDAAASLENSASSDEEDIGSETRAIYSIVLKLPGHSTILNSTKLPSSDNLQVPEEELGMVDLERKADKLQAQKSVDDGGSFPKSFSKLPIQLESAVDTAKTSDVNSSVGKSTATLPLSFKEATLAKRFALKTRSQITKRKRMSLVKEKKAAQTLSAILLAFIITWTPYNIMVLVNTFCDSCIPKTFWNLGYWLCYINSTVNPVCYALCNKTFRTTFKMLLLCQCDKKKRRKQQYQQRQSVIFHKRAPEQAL
Description: PDSP Primary Binding target: CHRM3 - Compounds are tested at 10 uM concentration, plate are incubated at room temperature in the dark for 90 minutes. Reaction are stopped by vacuum filtration onto 0.3% polyethyleneimine soaked filter mats using Filtermate harvester. Scintilation cocktail is then melted onto microwave-dried filters on a hot plate and the radio activity is counted in Microbia counter.

[7] = biological target: T5, D(4) dopamine receptor (Homo sapiens) (UniProt P21917)
T5 sequence (whole entry): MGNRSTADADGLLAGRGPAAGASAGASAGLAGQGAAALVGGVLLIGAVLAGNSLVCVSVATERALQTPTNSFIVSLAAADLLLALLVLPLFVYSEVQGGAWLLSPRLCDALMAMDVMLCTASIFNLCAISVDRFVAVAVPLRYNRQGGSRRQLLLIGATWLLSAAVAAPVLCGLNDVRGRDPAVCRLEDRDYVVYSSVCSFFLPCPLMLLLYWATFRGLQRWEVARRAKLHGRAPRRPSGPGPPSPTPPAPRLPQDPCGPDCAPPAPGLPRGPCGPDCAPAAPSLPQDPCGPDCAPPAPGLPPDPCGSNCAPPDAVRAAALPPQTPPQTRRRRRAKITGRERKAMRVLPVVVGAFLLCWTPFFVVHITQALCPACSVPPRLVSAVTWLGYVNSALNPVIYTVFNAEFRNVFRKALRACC
Description: PDSP Primary Binding target: DRD4 - Compounds are tested at 10 uM concentration, plate are incubated at room temperature in the dark for 90 minutes. Reaction are stopped by vacuum filtration onto 0.3% polyethyleneimine soaked filter mats using Filtermate harvester. Scintilation cocktail is then melted onto microwave-dried filters on a hot plate and the radio activity is counted in Microbia counter.

[8] = biological target: 5-hydroxytryptamine receptor 1B (Homo sapiens) (UniProt P28222)
5-hydroxytryptamine receptor 1B (Homo sapiens), sequence (P28222 whole entry): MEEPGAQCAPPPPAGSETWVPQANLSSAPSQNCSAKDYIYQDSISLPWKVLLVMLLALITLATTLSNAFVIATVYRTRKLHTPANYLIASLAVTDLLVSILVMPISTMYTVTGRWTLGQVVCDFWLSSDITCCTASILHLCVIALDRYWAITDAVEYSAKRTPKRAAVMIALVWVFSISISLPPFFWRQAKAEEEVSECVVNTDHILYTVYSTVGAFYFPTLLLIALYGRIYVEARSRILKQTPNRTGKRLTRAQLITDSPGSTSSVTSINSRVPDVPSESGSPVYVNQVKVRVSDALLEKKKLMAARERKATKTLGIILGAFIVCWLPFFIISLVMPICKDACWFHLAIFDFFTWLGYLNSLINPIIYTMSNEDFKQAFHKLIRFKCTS
Description: PDSP Primary Binding target: HTR1B - Compounds are tested at 10 uM concentration, plate are incubated at room temperature in the dark for 90 minutes. Reaction are stopped by vacuum filtration onto 0.3% polyethyleneimine soaked filter mats using Filtermate harvester. Scintilation cocktail is then melted onto microwave-dried filters on a hot plate and the radio activity is counted in Microbia counter.

[9] = biological target: 5-hydroxytryptamine receptor 1E (Homo sapiens) (UniProt P28566)
5-hydroxytryptamine receptor 1E (Homo sapiens), sequence (P28566 whole entry): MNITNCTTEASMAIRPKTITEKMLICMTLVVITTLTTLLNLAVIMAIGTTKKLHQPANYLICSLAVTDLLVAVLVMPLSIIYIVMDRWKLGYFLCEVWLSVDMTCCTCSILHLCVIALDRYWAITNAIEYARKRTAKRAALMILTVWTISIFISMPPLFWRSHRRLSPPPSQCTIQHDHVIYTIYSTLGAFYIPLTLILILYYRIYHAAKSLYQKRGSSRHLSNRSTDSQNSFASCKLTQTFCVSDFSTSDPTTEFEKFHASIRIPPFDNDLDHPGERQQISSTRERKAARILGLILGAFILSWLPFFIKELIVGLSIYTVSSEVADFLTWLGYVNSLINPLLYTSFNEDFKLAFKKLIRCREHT
Description: PDSP Primary Binding target: HTR1E - Compounds are tested at 10 uM concentration, plate are incubated at room temperature in the dark for 90 minutes. Reaction are stopped by vacuum filtration onto 0.3% polyethyleneimine soaked filter mats using Filtermate harvester. Scintilation cocktail is then melted onto microwave-dried filters on a hot plate and the radio activity is counted in Microbia counter.

[10] = biological target: 5-hydroxytryptamine receptor 2B (Homo sapiens) (UniProt P41595)
5-hydroxytryptamine receptor 2B (Homo sapiens), sequence (P41595 whole entry): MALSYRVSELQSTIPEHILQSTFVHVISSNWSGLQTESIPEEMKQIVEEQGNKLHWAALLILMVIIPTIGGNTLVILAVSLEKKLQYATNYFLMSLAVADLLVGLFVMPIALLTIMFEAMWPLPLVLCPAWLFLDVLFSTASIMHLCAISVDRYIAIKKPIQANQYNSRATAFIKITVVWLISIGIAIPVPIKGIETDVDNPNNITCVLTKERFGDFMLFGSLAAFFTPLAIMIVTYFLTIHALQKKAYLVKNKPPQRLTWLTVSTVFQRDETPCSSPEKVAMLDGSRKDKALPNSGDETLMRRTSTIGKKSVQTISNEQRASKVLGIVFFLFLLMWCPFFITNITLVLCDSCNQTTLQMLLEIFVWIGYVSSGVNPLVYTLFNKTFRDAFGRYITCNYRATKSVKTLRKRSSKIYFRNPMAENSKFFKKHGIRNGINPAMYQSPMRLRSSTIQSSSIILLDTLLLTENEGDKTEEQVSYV
Description: PDSP Primary Binding target: HTR2B - Compounds are tested at 10 uM concentration, plate are incubated at room temperature in the dark for 90 minutes. Reaction are stopped by vacuum filtration onto 0.3% polyethyleneimine soaked filter mats using Filtermate harvester. Scintilation cocktail is then melted onto microwave-dried filters on a hot plate and the radio activity is counted in Microbia counter.

[11] = biological target: 5-hydroxytryptamine receptor 5A (Homo sapiens) (UniProt P47898)
5-hydroxytryptamine receptor 5A (Homo sapiens), sequence (P47898 whole entry): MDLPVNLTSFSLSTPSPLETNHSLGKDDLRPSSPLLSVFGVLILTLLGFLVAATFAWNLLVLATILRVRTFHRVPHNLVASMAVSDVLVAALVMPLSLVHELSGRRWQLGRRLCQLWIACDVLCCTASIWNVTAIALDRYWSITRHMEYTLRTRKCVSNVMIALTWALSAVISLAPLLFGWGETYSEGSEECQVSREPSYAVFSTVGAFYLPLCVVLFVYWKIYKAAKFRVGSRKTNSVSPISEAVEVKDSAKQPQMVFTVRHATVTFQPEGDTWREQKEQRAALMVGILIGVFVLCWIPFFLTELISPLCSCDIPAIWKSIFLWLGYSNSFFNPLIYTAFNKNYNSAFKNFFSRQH
Description: PDSP Primary Binding target: HTR5A - Compounds are tested at 10 uM concentration, plate are incubated at room temperature in the dark for 90 minutes. Reaction are stopped by vacuum filtration onto 0.3% polyethyleneimine soaked filter mats using Filtermate harvester. Scintilation cocktail is then melted onto microwave-dried filters on a hot plate and the radio activity is counted in Microbia counter.

[12] = biological target: Sodium-dependent serotonin transporter (Homo sapiens) (UniProt P31645)
Sodium-dependent serotonin transporter (Homo sapiens), sequence (P31645 whole entry, looked up): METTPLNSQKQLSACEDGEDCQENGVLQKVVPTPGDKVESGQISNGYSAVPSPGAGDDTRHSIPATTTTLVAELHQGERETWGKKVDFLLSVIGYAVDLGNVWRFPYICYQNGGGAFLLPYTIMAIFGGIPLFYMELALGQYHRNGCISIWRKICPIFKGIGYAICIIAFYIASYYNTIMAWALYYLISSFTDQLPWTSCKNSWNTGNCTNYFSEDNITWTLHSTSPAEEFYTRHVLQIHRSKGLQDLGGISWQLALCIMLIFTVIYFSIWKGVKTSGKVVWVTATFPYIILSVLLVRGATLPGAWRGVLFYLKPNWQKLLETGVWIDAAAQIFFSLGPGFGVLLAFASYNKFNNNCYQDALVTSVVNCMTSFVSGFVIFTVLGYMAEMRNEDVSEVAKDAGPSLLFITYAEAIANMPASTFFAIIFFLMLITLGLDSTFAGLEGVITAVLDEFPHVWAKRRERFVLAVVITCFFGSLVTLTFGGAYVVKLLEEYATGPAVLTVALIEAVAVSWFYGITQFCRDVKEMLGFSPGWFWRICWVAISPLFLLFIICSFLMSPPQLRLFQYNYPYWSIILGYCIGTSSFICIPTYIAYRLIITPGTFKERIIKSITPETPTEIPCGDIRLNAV
Description: PDSP Primary Binding target: SLC6A4 - Compounds are tested at 10 uM concentration, plate are incubated at room temperature in the dark for 90 minutes. Reaction are stopped by vacuum filtration onto 0.3% polyethyleneimine soaked filter mats using Filtermate harvester. Scintilation cocktail is then melted onto microwave-dried filters on a hot plate and the radio activity is counted in Microbia counter.

[13] = biological target: Sigma intracellular receptor 2 (Homo sapiens) (UniProt Q5BJF2)
Sigma intracellular receptor 2 (Homo sapiens), sequence (Q5BJF2 whole entry): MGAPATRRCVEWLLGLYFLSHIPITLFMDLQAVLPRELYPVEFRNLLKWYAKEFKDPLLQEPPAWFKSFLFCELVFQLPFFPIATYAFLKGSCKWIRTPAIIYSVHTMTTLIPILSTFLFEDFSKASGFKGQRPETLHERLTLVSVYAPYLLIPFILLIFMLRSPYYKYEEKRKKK
Description: PDSP Primary Binding target: TMEM97 - Compounds are tested at 10 uM concentration, plate are incubated at room temperature in the dark for 90 minutes. Reaction are stopped by vacuum filtration onto 0.3% polyethyleneimine soaked filter mats using Filtermate harvester. Scintilation cocktail is then melted onto microwave-dried filters on a hot plate and the radio activity is counted in Microbia counter.

SMILES	inhibition [1]	inhibition [2]	inhibition [3]	inhibition [4]	inhibition [5]	inhibition [6]	inhibition [7]	inhibition [8]	inhibition [9]	inhibition [10]	inhibition [11]	inhibition [12]	inhibition [13]
Cc1c(P(=S)(c2ccccc2)c2ccccc2)n2ccccc2[n+]1C/C=C/c1ccccc1	58.1%	101%	65.4%	88.2%	57.4%	71%	25.8%	45.4%	1.99%	8.18%	42.1%	29.7%	88%
NCCc1cn(S(=O)(=O)c2c(Cl)nc3sccn23)c2ccccc12	93.4%	42.5%	39.8%	38.9%	15.1%	25.2%	38.7%	82.5%	23.3%	98.3%	28.4%	40.4%	82.9%
Cc1cn2cc(CC(=O)N3CCC4(CC3)CN(Cc3ccc(-n5nccn5)cc3Cl)C4)nc2s1	9.33%	35.9%	67.1%	51.1%	68.5%	98.2%	50.6%	–	-2.62%	19.4%	8.61%	11.6%	43.3%
c1nc(CC2CCNCC2)c[nH]1	14.5%	-1.91%	5.09%	6.59%	10.6%	6.47%	14.9%	17.7%	9.31%	30.4%	-4.49%	1.26%	27.7%
COc1ccc(NC(=O)c2ccc(-c3ccc(-c4noc(C)n4)cc3C)cc2)cc1OCCN(C)C	99.4%	79%	13.1%	50.7%	80.8%	37.2%	45.4%	101%	52.5%	90.6%	65.6%	55.4%	84.2%
O=C(O)c1cc(-c2ccc(C3CCNCC3)cc2)c2ccc(-c3ccc(C(F)(F)F)cc3)cc2c1	42.2%	27.2%	-2.41%	23.8%	10.7%	1.23%	–	73.7%	2.57%	26.6%	69%	4.44%	81.1%
C[N+]1(C)[C@@H]2C[C@@H](OC(=O)C(O)(c3cccs3)c3cccs3)C[C@H]1[C@@H]1O[C@@H]12	6.5%	-0.27%	16.1%	94.5%	94.2%	99.2%	20%	14.9%	11.2%	11.5%	2.25%	30%	66.5%
CN1CCN(c2ccc(Nc3c4ccccc4nc4ccccc34)cc2)CC1	70.5%	105%	81.7%	51.2%	63.8%	43.4%	13.3%	30.3%	46.2%	36.1%	20.3%	87.7%	70.8%
NC(=O)[C@@H]1CCCN1C(=O)[C@H](Cc1c[nH]cn1)NC(=O)[C@@H]1CCC(=O)N1	12.4%	49.8%	–	-3.59%	-6.24%	0.84%	18.4%	7.27%	-5.34%	18.6%	5.27%	5.26%	35%
